Assay results: patent US9771369B2, “Compounds and methods for kinase modulation, and indications therefor” (Plexxikon Inc., priority 2014, dated 2017)
pIC50: −log10 of the molar value.

Assays:
c-Kit kinase = c-Kit kinase (Homo sapiens (Human), UniProt P10721); test: c-Kit biochemical assay (AlphaScreen kinase activity)
In short: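 AlphaScreen: c-Kit phosphorylates biotin-(E4Y)3 (100 nM) at 10 μM ATP, pH 7.2 HEPES buffer with Mg/Mn, 5% DMSO, 1 h room temperature; streptavidin donor and PY30 acceptor beads detect product. Second format: 100 μM ATP, 30 nM biotin-(E4Y)10, pH 7.5. IC50 from 8-point 1:3 dilution curves.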

[1] = system: BaF3-FL KIT D816V or BaF3-FL KIT V560G/D816V cell line; test: Cell-based assays of c-Kit mutant kinase activity (cell proliferation, ATPlite); conditions: at least one of the c-kit cell assays of Example 7
In short: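 BaF3 cells dependent on transfected full-length human KIT D816V or V560G/D816V (pCI-Neo, CMV promoter) were seeded at 1×10^4 cells/well and exposed to 8-point 1:3 dilutions from 10 μM top (0.2% DMSO) for three days at 37° C. ATPlite luminescence gave cell number; IC50 from concentration-response.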

Chain of c-Kit kinase (P10721 26-976): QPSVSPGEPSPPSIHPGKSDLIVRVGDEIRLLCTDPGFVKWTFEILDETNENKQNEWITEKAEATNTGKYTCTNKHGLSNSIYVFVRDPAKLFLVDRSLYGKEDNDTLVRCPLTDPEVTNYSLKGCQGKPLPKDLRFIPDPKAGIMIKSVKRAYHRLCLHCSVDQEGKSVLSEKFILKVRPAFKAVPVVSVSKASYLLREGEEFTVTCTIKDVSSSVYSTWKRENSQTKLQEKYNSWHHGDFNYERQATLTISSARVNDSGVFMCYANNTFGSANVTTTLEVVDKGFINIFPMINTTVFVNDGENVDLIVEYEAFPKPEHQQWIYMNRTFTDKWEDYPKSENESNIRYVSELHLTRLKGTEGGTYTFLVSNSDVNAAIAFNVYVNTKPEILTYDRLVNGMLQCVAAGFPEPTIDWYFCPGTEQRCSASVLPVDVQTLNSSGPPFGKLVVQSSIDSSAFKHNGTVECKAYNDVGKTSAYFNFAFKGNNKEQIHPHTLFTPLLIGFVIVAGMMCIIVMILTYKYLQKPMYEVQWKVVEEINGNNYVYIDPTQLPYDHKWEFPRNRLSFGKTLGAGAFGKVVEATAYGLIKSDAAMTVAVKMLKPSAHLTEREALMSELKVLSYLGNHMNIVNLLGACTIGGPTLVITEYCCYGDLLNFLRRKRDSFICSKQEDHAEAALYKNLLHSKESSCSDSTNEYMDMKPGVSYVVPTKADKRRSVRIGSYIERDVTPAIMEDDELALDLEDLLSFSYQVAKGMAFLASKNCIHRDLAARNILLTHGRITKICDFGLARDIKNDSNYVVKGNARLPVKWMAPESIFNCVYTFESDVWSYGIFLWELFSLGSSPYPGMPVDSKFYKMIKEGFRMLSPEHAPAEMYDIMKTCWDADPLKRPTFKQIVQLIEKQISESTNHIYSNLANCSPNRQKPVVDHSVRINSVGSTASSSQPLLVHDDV

SMILES | IC50 (c-Kit kinase) [µM] | pIC50 [1]
COc1ccc(-c2cc3c(N4CCC(C)(c5nc(C)c(-c6cccc(OC(F)F)c6)[nH]5)CC4)ncnc3[nH]2)cn1 [P-3193, 4-[4-[5-[3-(difluoromethoxy)phenyl]-4-methyl-1H-imidazol-2-yl]-4-methyl-1-piperidyl]-6-(6-methoxy-3-pyridyl)-7H-pyrrolo[2,3-d]pyrimidine] | 0.0001 to 1 | > 5.00
Cc1nc(C2(C)CCN(c3ncnc4[nH]c(-c5ccc(C#N)cc5)cc34)CC2)[nH]c1-c1cccc(OC(F)F)c1 [P-3194, 4-[4-[4-[5-[3-(difluoromethoxy)phenyl]-4-methyl-1H-imidazol-2-yl]-4-methyl-1-piperidyl]-7H-pyrrolo[2,3-d]pyrimidin-6-yl]benzonitrile] | 1 to 10 | > 5.00
Cc1nc(C2(C)CCN(c3ncnc4[nH]c(-c5ccc(C#N)cc5)cc34)CC2)[nH]c1-c1ccc(OC(F)F)cc1 [P-3195, 4-[4-[4-[5-[4-(difluoromethoxy)phenyl]-4-methyl-1H-imidazol-2-yl]-4-methyl-1-piperidyl]-7H-pyrrolo[2,3-d]pyrimidin-6-yl]benzonitrile] | 0.0001 to 1 | > 5.00
Cc1cc2c(N3CCC(C)(c4nc(C)c(-c5ccc(OC(F)F)cc5)[nH]4)CC3)ncnc2[nH]1 [P-3196, 4-[4-[5-[4-(difluoromethoxy)phenyl]-4-methyl-1H-imidazol-2-yl]-4-methyl-1-piperidyl]-6-methyl-7H-pyrrolo[2,3-d]pyrimidine] | 1 to 10 | > 5.00
CCc1[nH]c(C2CCN(c3ncnc4[nH]c(-c5cnn(C(F)F)c5)cc34)CC2)nc1C [P-3197, 6-[1-(difluoromethyl)pyrazol-4-yl]-4-[4-(5-ethyl-4-methyl-1H-imidazol-2-yl)-1-piperidyl]-7H-pyrrolo[2,3-d]pyrimidine] | 1 to 10 | > 5.00
CCc1[nH]c(C2CCN(c3ncnc4[nH]c(-c5ccc(C#N)cc5)cc34)CC2)nc1C [P-3198, 4-[4-[4-(5-ethyl-4-methyl-1H-imidazol-2-yl)-1-piperidyl]-7H-pyrrolo[2,3-d]pyrimidin-6-yl]benzonitrile] | 1 to 10 | > 5.00
COc1ccc(-c2[nH]c(C3(C)CCN(c4ncnc5[nH]c(-c6ccc(C(=O)O)cc6)cc45)CC3)nc2C)cc1F [P-3199, 4-[4-[4-[5-(3-fluoro-4-methoxy-phenyl)-4-methyl-1H-imidazol-2-yl]-4-methyl-1-piperidyl]-7H-pyrrolo[2,3-d]pyrimidin-6-yl]benzoic acid] | 0.0001 to 1 | > 5.00
Cc1nc(C2(C)CCN(c3ncnc4[nH]nc(C)c34)CC2)[nH]c1-c1ccc(Cl)cc1 [P-3200, 4-[4-[5-(4-chlorophenyl)-4-methyl-1H-imidazol-2-yl]-4-methyl-1-piperidyl]-3-methyl-1H-pyrazolo[3,4-d]pyrimidine] | 1 to 10 | > 5.00
Cc1nc(C2(C)CCN(c3ncnc4[nH]nc(C)c34)CC2)[nH]c1-c1cccc(OC(F)F)c1 [P-3201, 4-[4-[5-[3-(difluoromethoxy)phenyl]-4-methyl-1H-imidazol-2-yl]-4-methyl-1-piperidyl]-3-methyl-1H-pyrazolo[3,4-d]pyrimidine] | 1 to 10 | > 5.00
COc1ccc(-c2[nH]c(C3(C)CCN(c4ncnc5[nH]nc(C)c45)CC3)nc2C)cc1F [P-3202, 4-[4-[5-(3-fluoro-4-methoxy-phenyl)-4-methyl-1H-imidazol-2-yl]-4-methyl-1-piperidyl]-3-methyl-1H-pyrazolo[3,4-d]pyrimidine] | 1 to 10 | > 5.00
Cc1nc(C2(C)CCN(c3ncnc4[nH]nc(C)c34)CC2)[nH]c1-c1ccc2c(c1)OC(F)(F)O2 [P-3203, 4-[4-[5-(2,2-difluoro-1,3-benzodioxol-5-yl)-4-methyl-1H-imidazol-2-yl]-4-methyl-1-piperidyl]-3-methyl-1H-pyrazolo[3,4-d]pyrimidine] | 1 to 10 | > 5.00
Fc1ccc(-c2cc3c(N4CCC(c5nnc(-c6ccc(F)cc6)[nH]5)CC4)ncnc3[nH]2)cc1 [P-3206, 6-(4-fluorophenyl)-4-[4-[5-(4-fluorophenyl)-4H-1,2,4-triazol-3-yl]-1-piperidyl]-7H-pyrrolo[2,3-d]pyrimidine] | 1 to 10 | > 5.00
COc1cc(-c2cc3c(N4CCC(c5nnc(-c6cccc(OC(F)F)c6)[nH]5)CC4)ncnc3[nH]2)ccn1 [P-3207, 4-[4-[5-[3-(difluoromethoxy)phenyl]-4H-1,2,4-triazol-3-yl]-1-piperidyl]-6-(2-methoxy-4-pyridyl)-7H-pyrrolo[2,3-d]pyrimidine] | 1 to 10 | > 5.00
CCOc1ccc(-c2[nH]c(C3(C)CCN(c4ncnc5[nH]c(-c6ccc(OC)nc6)cc45)CC3)nc2C)cc1F [P-3209, 4-[4-[5-(4-ethoxy-3-fluoro-phenyl)-4-methyl-1H-imidazol-2-yl]-4-methyl-1-piperidyl]-6-(6-methoxy-3-pyridyl)-7H-pyrrolo[2,3-d]pyrimidine] | 0.0001 to 1 | > 5.00
CCOc1ccc(-c2[nH]c(C3(C)CCN(c4ncnc5[nH]c(-c6cnn(C(F)F)c6)cc45)CC3)nc2C)cc1F [P-3210, 6-[1-(difluoromethyl)pyrazol-4-yl]-4-[4-[5-(4-ethoxy-3-fluoro-phenyl)-4-methyl-1H-imidazol-2-yl]-4-methyl-1-piperidyl]-7H-pyrrolo[2,3-d]pyrimidine] | 0.0001 to 1 | > 5.00
COc1ccc(-c2[nH]c(C3(C)CCN(c4ncnc5[nH]c(-c6ccc(C#N)nc6)cc45)CC3)nc2C)cc1F [P-3211, 5-[4-[4-[5-(3-fluoro-4-methoxy-phenyl)-4-methyl-1H-imidazol-2-yl]-4-methyl-1-piperidyl]-7H-pyrrolo[2,3-d]pyrimidin-6-yl]pyridine-2-carbonitrile] | 1 to 10 | > 5.00
COc1ccc(-c2[nH]c(C3(C)CCN(c4ncnc5[nH]c(-c6ccc(C(N)=O)cc6)cc45)CC3)nc2C)cc1F [P-3212, 4-[4-[4-[5-(3-fluoro-4-methoxy-phenyl)-4-methyl-1H-imidazol-2-yl]-4-methyl-1-piperidyl]-7H-pyrrolo[2,3-d]pyrimidin-6-yl]benzamide] | 0.0001 to 1 | > 5.00
COc1ccc(-c2[nH]c(C3(C)CCN(c4ncnc5[nH]c(-c6ccc(NS(C)(=O)=O)cc6)cc45)CC3)nc2C)cc1F [P-3213, N-[4-[4-[4-[5-(3-fluoro-4-methoxy-phenyl)-4-methyl-1H-imidazol-2-yl]-4-methyl-1-piperidyl]-7H-pyrrolo[2,3-d]pyrimidin-6-yl]phenyl]methanesulfonamide] | 0.0001 to 1 | > 5.00
COc1ccc(-c2[nH]c(C3(C)CCN(c4ncnc5[nH]c(-c6ccc(OCC(=O)O)cc6)cc45)CC3)nc2C)cc1F [P-3214, 2-[4-[4-[4-[5-(3-fluoro-4-methoxy-phenyl)-4-methyl-1H-imidazol-2-yl]-4-methyl-1-piperidyl]-7H-pyrrolo[2,3-d]pyrimidin-6-yl]phenoxy]acetic acid] | 0.0001 to 1 | > 5.00
COc1ccc(-c2[nH]c(C3(C)CCN(c4ncnc5[nH]c(-c6ccc(N7CCOCC7)nc6)cc45)CC3)nc2C)cc1F [P-3215, 4-[5-[4-[4-[5-(3-fluoro-4-methoxy-phenyl)-4-methyl-1H-imidazol-2-yl]-4-methyl-1-piperidyl]-7H-pyrrolo[2,3-d]pyrimidin-6-yl]-2-pyridyl]morpholine] | 0.0001 to 1 | > 5.00
